Data from ChEMBL document CHEMBL5604062, “ASAP - ZIKV NS2B-NS3 protease fluorescence dose response” (2024).
Where “and” joins values, the source holds several entries; their conditions need not be identical. Equal values may be shown once.

The compounds below were run against Nonstructural protein 3 (Zika virus, UniProt A0A024AXB9) (assay: Functional biochemical assay to identify treatments for viral infectious disease that targets Zika NS2B-NS3 protease. Utilizing a direct enzyme activity measurement method, reading the fluorescence intensity is used to characterize the relative potency of inhibitors as IC50.).
Chain of Nonstructural protein 3 (A0A024AXB9 whole entry): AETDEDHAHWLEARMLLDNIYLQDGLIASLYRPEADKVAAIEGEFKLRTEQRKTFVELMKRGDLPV
Parameters: species or system PRVABC59

SMILES	IC50
CCCCCC(=O)N[C@H](C(=O)NCc1ccc(NC(=N)N)cc1)c1ccc(OCc2ccccc2)cc1	> 99.5 µM
OC1CCN(Cc2c[nH]c3ccccc23)CC1	> 99.5 µM
O=C(Nc1cc(Cl)cc(S(=O)(=O)Nc2cccc(-c3nn[nH]n3)c2)c1)OCc1ccccc1	> 99.5 µM
Cc1ccc(NC(=O)c2cc(Cl)cc3[nH]ncc23)cc1N	> 99.5 µM
Cc1ccc(C(=O)Nc2ccc3c(c2)CNC3)c2[nH]ncc12	3.39 µM
O=C(O)CCCc1cccc(NC(=O)c2cc(Cl)cc(NC(=O)OCc3ccccc3)c2)c1	84.3 µM
COc1ccc(CN(C)C)cc1NC(=O)[C@@H](NC(=O)OCc1ccccc1)c1ccc(OCc2ccccc2)cc1	> 99.5 µM
O=C(O)c1cc(Cl)ccc1NS(=O)(=O)c1ccc(-c2ccccc2Cl)cc1	17.8 µM
NCc1cccc(NC(=O)[C@H](NS(=O)(=O)Cc2ccccc2)c2ccc(OCc3ccccc3)cc2)c1	64.5 µM
CC(C)c1occ(C(F)(F)F)c1C(=O)Nc1cccc(CN)c1	> 99.5 µM
N=C(N)NCc1ccc(NC(=O)Oc2ccccc2)cc1	> 100 µM
O=C(Nc1ccc2c(c1)CNC2)c1cc(C(F)(F)F)cc2[nH]ccc12	1.07 µM
Cc1cc(C#N)cc2c(Cc3ccc(-c4nnn[nH]4)cc3)c[nH]c12	> 99.5 µM
NCc1cccc(NC(=O)[C@@H](Cc2ccccc2)NC(=O)OCc2ccccc2)c1	> 99.5 µM
CN(C)CCOc1ccc(Cl)cc1C(=O)Nc1cccc(CN)c1	25.6 µM
COc1cc(-c2cc(NC(=O)c3cc(F)cc4[nH]ncc34)cc3c2CNC3)ccn1	0.033 µM and 0.03 µM and 0.023 µM
NCc1cccc(NC(=O)[C@@H](NC(=O)OCc2ccccc2)c2ccc(Br)c(Cl)c2)c1	9.66 µM and 8.77 µM
C=CC[C@H](Nc1cc(Cl)cc(NC(=O)OCc2ccccc2)c1)c1cccc(CN)c1	7.69 µM

Continued, values first:

IC50	SMILES
> 99.5 µM	O=C(Nc1cc(Cl)cc(C(=O)Nc2cccc(-c3cc[nH]n3)c2)c1)OCc1ccccc1
66.1 µM	O=C(Nc1cc(Cl)cc(C(=O)Nc2ccnc(OC3CNC3)c2)c1)OCc1ccccc1
42.9 µM	c1ccc2c(CN3CCC(c4c[nH]c5cccnc45)CC3)n[nH]c2c1
79.4 µM	NCc1ccc(/C=C/C(=O)C(=O)N2CCOCC2)cc1
> 99.5 µM	Cc1c(C(=O)Nc2cccc([C@@H](C)N)c2)cc(C2CC2)n1C
> 99.5 µM	COC(=O)c1cncc(OCc2cc(OC)nc(N3CCNCC3)n2)c1
> 99.5 µM	CCn1cc(-c2cnn(C)n2)nc(N2CC[C@@H](CO)C2)c1=O
22.8 µM	O=C1Cc2c(C(=O)Nc3ccc4c(c3)CNC4)ccnc2N1
> 25 µM	O=C1Cc2c(cccc2C(=O)NC[C@H]2C[C@@H](n3cccn3)C2)N1
> 25 µM	O=C1Cc2c(cccc2C(=O)Nc2ccc(Cl)c(CO)n2)N1
> 25 µM	O=C(Nc1cc(-c2cccnc2)ccn1)c1cc2n(c1)CCC2
> 25 µM	Cc1c(CN)c(C(=O)Nc2cc(-c3cccnc3)ccn2)nn1C
> 99.5 µM	CCn1c(=O)c(N2C[C@H]3CN(C)CC[C@H]3C2)nc2ccccc21
> 99.5 µM	NC[C@H]1CC[C@H](NC(=O)c2cc(Cl)cc(NC(=O)OCc3ccccc3)c2)CC1
> 99.5 µM	O=S1(=O)CCN(CC#Cc2ccc3sncc3c2)CC1
> 99.5 µM	Cc1cccc([C@@H](NC(=O)OCc2ccccc2)C(=O)Nc2cccc(CN)c2)n1
> 99.5 µM	C[C@H](CC(=O)O)N(C)C(=O)c1cc(Cl)cc(NC(=O)OCc2ccccc2)c1
> 99.5 µM	Cc1c(C(=O)Nc2n[nH]c3c2CNC3)cc(C2CC2)n1C
15.4 µM	C[C@H]1CC[C@H](CS(=O)(=O)N[C@H](C(=O)Nc2cccc(CN)c2)c2ccc(OCc3ccccc3)cc2)CC1
> 99.5 µM	CNC(=O)C[C@H](Nc1ccccn1)c1cc(Cl)cc(Br)c1
25.2 µM	c1ccc2c(CN3CCC(c4c[nH]c5cccnc45)CC3)c[nH]c2c1
> 99.5 µM	O=C(Nc1cc(Cl)cc(C(=O)NC2(c3nn[nH]n3)CCCC2)c1)OCc1ccccc1
14.7 µM	O=C(Nc1ccc2c(c1)CNC2)c1cncc(-c2ccccc2)c1
> 99.5 µM	NCc1cccc(NC(=O)C2CCNCC2)c1
> 25 µM	c1cc([C@@H]2C[C@H]2c2ccc3c(c2)CNC3)c2cn[nH]c2c1
